Measurements from patent US6900343B1, “Method for the purification of metallocenes” (Basell Polyolefine GmbH, priority 1998, dated 2005).

Assays:
[1] = Propylene polymerization with supported metallocene/MAO/SiO2 catalyst; settings: supported on SiO2 with MAO (Al/Zr=215); liquid propylene, 60° C., 1 hour
Procedure: 35.1 mg (0.047 mmol) of (1) were stirred in 2.1 ml of 30% strength MAO solution in toluene (Al/Zr=215) for 60 minutes at room temperature. 2 g of SiO2 (Grace XPO2107, pretreated at 140° C., 10 mbar, 10 hours) were subsequently added and the mixture was stirred for another 10 minutes. The solvent was removed in an oil pump vacuum.
A dry 2 l reactor was flushed firstly with nitrogen and subsequently with propylene and charged with 1.5 l of liquid propylene. 2 ml of TEA (20% strength in Varsol) were added thereto and the mixture was stirred for 15 minutes. The catalyst system prepared above (0.886 g) was subsequently resuspended in 20 ml of heptane and then injected into the reactor and rinsed in with 15 ml of heptane. The reaction mixture was heated to the polymerization temperature of 60° C. and polymerization was carried out for 1 hour. The polymerization was stopped by venting the remaining propylene. The polymer was dried in a vacuum drying oven. This gave 470 g of polypropylene powder. […] The catalyst activity was 0.53 kg of PP/g of catalyst x h.
27.1 mg (0.047 mmol) of dimethylsilanediylbis(2-methyl-4,5-benzoindenyl)zirconium dichloride were stirred in 2.1 ml of 30% strength MAO solution in toluene (Al/Zr=215) for 60 minutes at room temperature. […]

[2] = Solubility comparison in toluene at room temperature

| Compound | catalyst activity [1] | solubility [2] |
| --- | --- | --- |
| CC1=Cc2c(ccc3ccccc23)[C]12[Si](C)(C)[C]1(C(C)=Cc3c1ccc1ccccc31)[Zr]2([Cl])[O]c1ccc(C(C)(C)C)cc1C(C)(C)C (stereo not shown) [Compound 1, Dimethylsilanediylbis(2-methyl-4,5-benzoindenyl)zirconium Monochloride mono(2,4-di-tert-butylphenoxide)] | 0.53 kg of PP/g of catalyst x h | > 13 mM |
| CCC(C)(C)c1ccc([O][Zr]2([Cl])[C]3(C(C)=Cc4c3ccc3ccccc43)[Si](C)(C)[C]23C(C)=Cc2c3ccc3ccccc23)c(C(C)(C)CC)c1 (stereo not shown) [Compound 6, Dimethylsilanediylbis(2-methyl-4,5-benzoindenyl)-zirconium Monochloride mono(2,4-di-tert-pentylphenoxide)] |  | about 17.7 mmol/l |
| CC1=Cc2c(ccc3ccccc23)[C]12[Si](C)(C)[C]1(C(C)=Cc3c1ccc1ccccc31)[Zr]2([Cl])[Cl] (stereo not shown) [dimethylsilanediylbis(2-methyl-4,5-benzoindenyl)zirconium dichloride, reference compound] | 0.46 kg of PP/g of catalyst x h | about 0.36 mmol/l |
| Cc1cc2ccccc2[c-]1[Si](C)(C)[c-]1c(C)cc2ccccc21.[Cl-].[Cl-].[Zr+4] (stereo not shown) [dimethylsilanediylbis(2-methylindenyl)zirconium dichloride, reference compound] |  | about 2.1 mmol/l |
| Dimethylsilanediyl-bis(2-methylindenyl)zirconium Monochloride mono(2,4-di-tert-butylphenoxide) [Compound 2] |  | > 15 mM |
